In US9006450B2 (Boehringer Ingelheim International GmbH, priority 2010, dated 2015):

Each compound was assayed against T1, human ACC2 (Homo sapiens, UniProt O00763) (assay: ACC2 assay, spectrophotometric 384 well assay (NADH-linked, coupled lactate dehydrogenase/pyruvate kinase)). Settings: ACC2 assay, hACC2 construct lacking 128 N-terminal amino acids, 25° C., 340 nm; read-out: IC50.
T1 construct: made in house; host or cells: insect cells (baculoviral expression system)
Format: biochemical
Protocol: Spectrophotometric 384 Well Assay
Malonyl CoA formation by acetyl CoA carboxylases is stoichometrically linked to the consumption of ATP. ACC2 activity is measured in a NADH-linked kinetic method measuring ADP generated during the ACC reaction using a coupled lactate dehydrogenase/pyruvate kinase reaction.
For biological testing, a human ACC2 construct which lacks the 128 amino acids at the N-terminus for increased solubility (nt 385-6966 in Genbank entry AJ575592) is cloned. The protein is then expressed in insect cells using a baculoviral expression system. Protein purification is performed by anion exchange.
All compounds are dissolved in dimethyl sulfoxide (DMSO) to a concentration of 10 mM.
Assay reactions are then carried out in 384-well plates, with hACC2 in an appropriate dilution and at final assay concentrations (f.c.) of 100 mM Tris (pH 7.5), 10 mM trisodium citrate, 25 mM KHCO3, 10 mM MgCl2, 0.5 mg/mL BSA, 3.75 mM reduced L-glutathione, 15 U/mL lactate dehydrogenase, 0.5 mM phosphoenolpyruvate, 15 U/mL pyruvate kinase, compounds at different concentrations at final DMSO concentrations of 1%.
The enzymatic reaction is then started by addition of a mixture of NADH, acetyl Coenzyme A (both 200 μM f.c.) and ATP (500 uM f.c.). The decrease of the optical density (slope S) is then determined at 25° C. at a wavelength of 340 nm over 15 minutes in a spectrophotometric reader.
Each assay microtiter plate contains wells with vehicle instead of compound as controls for the non-inhibited enzyme (100% CTL; ‘HIGH’) and wells without acetyl-CoA as controls for non-specific NADH degradation (0% CTL; ‘LOW’).
The slope S is used for calculation of % CTL=(S(compound)−S('LOW'))/(S('HIGH')−S('LOW'))*100. Compounds will give values between 100% CTL (no inhibition) and 0% CTL (complete inhibition).
For IC50 value determination, the sample slope in the presence of the test compound after subtraction of the low controls (S(compound)−S('LOW')) are used.
An IC50 value is derived from the compound slopes at different dosages after subtraction of the low controls (S(compound)−S('LOW')) by non-linear regression curve fitting (equation y=(A+((B−A)/(1+((C/x)^D))))).

T1 sequence (O00763 129-2458 limits assumed): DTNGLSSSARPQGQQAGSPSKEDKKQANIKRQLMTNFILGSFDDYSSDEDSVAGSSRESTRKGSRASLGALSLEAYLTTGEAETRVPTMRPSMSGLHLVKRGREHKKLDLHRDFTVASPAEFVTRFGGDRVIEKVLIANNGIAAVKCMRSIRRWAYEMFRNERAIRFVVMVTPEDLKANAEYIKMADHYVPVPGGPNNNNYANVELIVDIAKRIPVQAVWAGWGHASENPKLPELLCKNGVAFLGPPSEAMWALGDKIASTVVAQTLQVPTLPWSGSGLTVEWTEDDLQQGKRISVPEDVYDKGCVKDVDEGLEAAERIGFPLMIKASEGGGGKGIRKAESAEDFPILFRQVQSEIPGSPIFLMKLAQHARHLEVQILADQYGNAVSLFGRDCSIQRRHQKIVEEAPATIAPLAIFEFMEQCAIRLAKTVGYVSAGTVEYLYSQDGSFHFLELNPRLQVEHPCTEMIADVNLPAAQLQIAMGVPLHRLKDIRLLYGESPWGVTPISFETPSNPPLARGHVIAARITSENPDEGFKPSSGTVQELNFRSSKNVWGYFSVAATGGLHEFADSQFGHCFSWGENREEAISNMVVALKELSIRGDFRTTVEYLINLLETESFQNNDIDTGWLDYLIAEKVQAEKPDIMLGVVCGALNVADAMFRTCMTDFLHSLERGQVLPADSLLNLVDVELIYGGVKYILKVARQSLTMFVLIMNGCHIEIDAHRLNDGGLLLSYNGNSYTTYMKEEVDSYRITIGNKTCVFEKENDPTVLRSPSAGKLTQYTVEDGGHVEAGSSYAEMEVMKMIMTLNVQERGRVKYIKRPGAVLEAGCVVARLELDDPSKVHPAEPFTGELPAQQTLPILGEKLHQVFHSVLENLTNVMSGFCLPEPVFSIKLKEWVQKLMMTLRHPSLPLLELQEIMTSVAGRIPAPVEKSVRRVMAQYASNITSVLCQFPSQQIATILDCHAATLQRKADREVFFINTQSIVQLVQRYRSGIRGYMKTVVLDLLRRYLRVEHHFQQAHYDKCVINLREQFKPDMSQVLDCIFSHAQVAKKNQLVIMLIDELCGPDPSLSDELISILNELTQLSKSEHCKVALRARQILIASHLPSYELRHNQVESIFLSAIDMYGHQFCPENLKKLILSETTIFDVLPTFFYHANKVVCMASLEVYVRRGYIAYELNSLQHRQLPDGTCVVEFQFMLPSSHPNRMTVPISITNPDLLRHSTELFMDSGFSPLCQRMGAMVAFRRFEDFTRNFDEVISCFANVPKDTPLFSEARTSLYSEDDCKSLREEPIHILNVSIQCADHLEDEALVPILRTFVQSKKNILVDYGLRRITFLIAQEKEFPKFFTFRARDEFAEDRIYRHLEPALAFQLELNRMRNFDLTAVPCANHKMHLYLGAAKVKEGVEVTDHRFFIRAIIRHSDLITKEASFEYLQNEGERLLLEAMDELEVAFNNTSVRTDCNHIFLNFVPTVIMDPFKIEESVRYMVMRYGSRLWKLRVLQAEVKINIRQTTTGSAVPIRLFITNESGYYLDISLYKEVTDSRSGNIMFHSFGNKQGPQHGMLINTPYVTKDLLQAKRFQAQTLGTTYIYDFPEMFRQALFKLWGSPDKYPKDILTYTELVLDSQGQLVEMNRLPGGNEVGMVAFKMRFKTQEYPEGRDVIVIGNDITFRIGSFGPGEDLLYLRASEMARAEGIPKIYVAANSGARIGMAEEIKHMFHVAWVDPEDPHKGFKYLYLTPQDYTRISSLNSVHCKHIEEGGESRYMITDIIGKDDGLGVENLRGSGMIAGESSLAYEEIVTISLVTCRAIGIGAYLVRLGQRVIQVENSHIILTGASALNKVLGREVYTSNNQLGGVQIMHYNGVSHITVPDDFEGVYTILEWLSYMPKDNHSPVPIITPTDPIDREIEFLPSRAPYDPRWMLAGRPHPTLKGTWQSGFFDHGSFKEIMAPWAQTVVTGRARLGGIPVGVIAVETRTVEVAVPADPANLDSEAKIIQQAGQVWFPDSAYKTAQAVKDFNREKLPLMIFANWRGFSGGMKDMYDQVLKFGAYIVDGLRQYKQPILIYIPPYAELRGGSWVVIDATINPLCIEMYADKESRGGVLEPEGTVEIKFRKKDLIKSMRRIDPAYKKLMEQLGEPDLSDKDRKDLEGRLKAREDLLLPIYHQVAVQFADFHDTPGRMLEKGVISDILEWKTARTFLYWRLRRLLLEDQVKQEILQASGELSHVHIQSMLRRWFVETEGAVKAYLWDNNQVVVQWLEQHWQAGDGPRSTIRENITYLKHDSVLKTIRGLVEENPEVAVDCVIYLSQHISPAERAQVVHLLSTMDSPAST

| SMILES | IC50 |
| --- | --- |
| CC(=O)N[C@@H](C)c1ccc(C2CCN(c3ccc(OCc4ccccc4)nc3)CC2)cc1 [Example 1.54] | 130 nM |
| CCOC(=O)c1cnnc(N2CCC(c3ccc([C@H](C)NC(C)=O)cc3)CC2)c1 [Example 5.55] | 7600 nM |
| C[C@H](NC(=O)N(C)C)c1ccc(C2CCN(c3ccc(OCC4CC4(F)F)cc3)CC2)cc1 (stereo partly shown) [Example 1.140] | 90 nM |
| CCOc1ccc(N2CCC(c3ccc([C@H](C)NC(=O)C4(C)CCC4)cc3)CC2)cc1 [Example 6.45] | 2600 nM |
| CC(=O)N[C@@H](C)c1ccc(C2CCN(c3cccc4c3OCCO4)CC2)cc1 [Example 1.98] | 470 nM |
| CCCOc1ccc(N2CCC(c3ccc([C@H](C)NC(C)=O)cc3)CC2)cc1F [Example 8.62] | 200 nM |
| CC(=O)N[C@@H](C)c1ccc(C2CCN(c3cccc(OCC4CC4)c3)CC2)cc1 [Example 8.3] | 200 nM |
| COc1cc(N2CCC(c3ccc([C@H](C)NC(C)=O)cc3)CC2)ccc1OC1CCCC1 [Example 8.38] | 1200 nM |
| CCCOc1ccc(N2CCC(c3ccc([C@H](C)NC(C)=O)cc3)CC2)cn1 [Example 1.55] | 240 nM |
| C[C@H](NC(=O)N(C)C)c1ccc(C2CCN(c3ccc(OCC4CC4)cc3)CC2)cc1 [Example 1.24] | 210 nM |
| C[C@H](NC(=O)C1CC1)c1ccc(C2CCN(c3ncc4nc(-c5ccccc5)oc4n3)CC2)cc1 [Example 4.46] | 210 nM |
| CC(=O)N[C@@H](C)c1ccc(C2CCN(c3ccc(OCC4CCO4)c(C)c3)CC2)cc1 (stereo partly shown) [Example 8.47] | 2600 nM |
| CC(=O)N[C@@H](C)c1ccc(C2CCN(c3ccc(Cl)cc3C#N)CC2)cc1 [Example 1.171] | 16300 nM |
| CCOc1ccc(N2CCC(c3ccc([C@H](C)NC(=O)C4CC(F)C4)cc3)CC2)cc1 (stereo partly shown) [Example 6.38] | 90 nM |
| CC(=O)N[C@@H](C)c1ccc(C2CCN(c3ccc(OCC(F)F)cc3)CC2)cc1 [Example 1.164] | 770 nM |
| CCOc1ccc(N2CCC(c3ccc([C@H](C)NC(=O)C4(C)COC4)cc3)CC2)cc1 [Example 6.27] | 4800 nM |
| CC(=O)N[C@@H](C)c1ccc(C2CCN(c3ccc(OCC4CCCO4)cc3)CC2)cc1 (stereo partly shown) [Example 1.167] | 910 nM |
| CC(=O)N[C@@H](C)c1ccc(C2CCN(c3nnc(-c4ccccc4)s3)CC2)cc1 [Example 5.33] | 330 nM |
| CC(=O)N[C@@H](C)c1ccc(C2CCN(c3cc(Cl)ccn3)CC2)cc1 [Example 5.13] | 3000 nM |
| CCOc1ccc(N2CCC(c3ccc([C@H](C)NC(C)=O)cc3)CC2)cc1Cl [Example 8.61] | 300 nM |
| CCOc1ccc(N2CCC(c3ccc(CC(C)NC(C)=O)cc3)CC2)cc1 (stereo not shown) [Example 2.1, N-(2-{4-[1-(4-Ethoxy-phenyl)-piperidin-4-yl]-phenyl}-1-methyl-ethyl)-acetamide] | 2100 nM |
| CC(C)COc1ccc(N2CCC(c3ccc([C@H](C)NC(=O)C4CC4)cc3)CC2)nc1 [Example 1.118] | 120 nM |
| CCCC(C)Oc1ccc(N2CCC(c3ccc([C@H](C)NC(C)=O)cc3)CC2)cc1C (stereo partly shown) [Example 8.56] | 1000 nM |
| CCOc1ccc(N2CCC(c3ccc([C@H](C)NC(C)=O)cc3)CC2)nn1 [Example 3.11] | 3000 nM |
| CCCOc1ccc(N2CCC(c3ccc([C@H](C)NC(C)=O)cc3)CC2)cc1 [Example 3.8] | 340 nM |

Next, values leading:

| IC50 | SMILES |
| --- | --- |
| 8400 nM | COCCOc1nccc(N2CCC(c3ccc([C@H](C)NC(C)=O)cc3)CC2)n1 [Example 11.30] |
| 19900 nM | COc1cncc(N2CCC(c3ccc([C@H](C)NC(C)=O)cc3)CC2)c1 [Example 15.9] |
| 1300 nM | CC(=O)N[C@@H](C)c1ccc(C2CCN(c3ncc(-c4ccc(OC(C)C)c(C)c4)cn3)CC2)cc1 [Example 10.126] |
| 7500 nM | CCOc1ccc(N2CCC(c3ccc([C@H](C)NS(=O)(=O)C4CCC4)cc3)CC2)cc1 [Example 17.3] |
| 540 nM | CCOc1ccc(-c2cnc(N3CCC(c4ccc([C@H](C)NC(C)=O)cc4)CC3)nc2)cc1 [Example 10.5] |
| 3000 nM | CC(=O)N[C@@H](C)c1ccc(C2CCN(c3cc(NC4CC4)ncn3)CC2)cc1 [Example 11.132] |
| 310 nM | CCOc1cccc(-c2ccc(N3CCC(c4ccc([C@H](C)NC(C)=O)cc4)CC3)nc2)c1 [Example 10.306] |
| 2100 nM | CC(=O)N[C@@H](C)c1ccc(C2CCN(c3ncc(C(=O)N4CCCC4)cn3)CC2)cc1 [Example 18.54] |
| 410 nM | CC(=O)N[C@@H](C)c1ccc(C2CCN(c3ccnc(OC(C)C4CC4)c3)CC2)cc1 (stereo partly shown) [Example 19.27] |
| 7800 nM | CCNc1cc(N2CCC(c3ccc([C@H](C)NC(C)=O)cc3)CC2)ncn1 [Example 11.51] |
| 2900 nM | CCOc1ccc(N2CCC(c3ccc([C@H](C)NS(C)(=O)=O)cc3)CC2)cc1 [Example 17.1, (S)—N-(1-{4-[1-(4-Ethoxy-phenyl)-piperidin-4-yl]-phenyl}-ethyl)-methanesulfonamide] |
| 1200 nM | CC(=O)N[C@@H](C)c1ccc(C2CCN(c3ncc(-c4ccc(C)cc4C)cn3)CC2)cc1 [Example 10.48] |
| 16600 nM | CC(=O)N[C@@H](C)c1ccc(C2CCN(c3ncc(C(=O)N4CCCC4CN(C)C)cn3)CC2)cc1 (stereo partly shown) [Example 18.88] |
| 410 nM | CC(=O)N[C@@H](C)c1ccc(C2CCN(c3ccnc(N(C)Cc4ccccc4)n3)CC2)cc1 [Example 11.83] |
| 330 nM | CC(=O)N[C@@H](C)c1ccc(C2CCN(c3ccnc(OC4CCOCC4)c3)CC2)cc1 [Example 19.17] |
| 320 nM | CC(=O)N[C@@H](C)c1ccc(C2CCN(c3ccc(-c4ccc5[nH]ccc5c4)cn3)CC2)cc1 [Example 10.301] |
| 1200 nM | CC(=O)N[C@@H](C)c1ccc(C2CCN(c3ccnc(OCc4ccccn4)c3)CC2)cc1 [Example 19.37] |
| 16500 nM | CC(=O)N[C@@H](C)c1ccc(C2CCN(c3ncc(C(=O)NC4CCN(C)C4)cn3)CC2)cc1 (stereo partly shown) [Example 18.81] |

| IC50 | SMILES |
| --- | --- |
| 200 nM | CC(=O)N[C@@H](C)c1ccc(C2CCN(c3ncc(-c4ccccc4C)cn3)CC2)cc1 [Example 10.8] |
| 780 nM | CC(=O)N[C@@H](C)c1ccc(C2CCN(c3ccc(OCc4cc(C)on4)cc3)CC2)cc1 [Example 9.28] |
| 690 nM | CC(=O)N[C@@H](C)c1ccc(C2CCN(c3ccc(OCC4CCC4)c(C)c3)CC2)cc1 [Example 9.37] |
| 690 nM | COc1cccc(Oc2cc(N3CCC(c4ccc([C@H](C)NC(C)=O)cc4)CC3)ncn2)c1 [Example 11.31] |
| 280 nM | CC(=O)N[C@@H](C)c1ccc(C2CCN(c3ccc(-c4ccc(C)cc4)cn3)CC2)cc1 [Example 10.314] |
| 230 nM | CC(=O)N[C@@H](C)c1ccc(C2CCN(c3ccnc(OCC4(C#N)CC4)c3)CC2)cc1 [Example 19.28] |
| 320 nM | CNc1nc(N2CCC(c3ccc([C@H](C)NC(C)=O)cc3)CC2)ncc1-c1ccccc1 [Example 21.3, (S)—N-(1-{4-[1-(4-Methylamino-5-phenyl-pyrimidin-2-yl)-piperidin-4-yl]-phenyl}-ethyl)-acetamide] |
| 1100 nM | CC(=O)N[C@@H](C)c1ccc(C2CCN(c3ccnc(-c4ccc5c(c4)OCO5)n3)CC2)cc1 [Example 22.1, (S)—N-(1-{4-[1-(2-Benzo[1,3]dioxol-5-yl-pyrimidin-4-yl)-piperidin-4-yl]-phenyl}-ethyl)-acetamide] |
| 140 nM | CC(=O)N[C@@H](C)c1ccc(C2CCN(c3ccnc(OCC4CCC4)c3)CC2)cc1 [Example 19.11] |
| 220 nM | CC(=O)N[C@@H](C)c1ccc(C2CCN(c3ccc(OCC/C=C/C4CC4)cc3)CC2)cc1 [Example 8.65] |
| 4300 nM | CC(=O)N[C@@H](C)c1ccc(C2CCN(c3ncc(C4=CCC5(CC4)OCCO5)cn3)CC2)cc1 [Example 10.93] |
| 240 nM | CC(=O)N[C@@H](C)c1ccc(C2CCN(c3ccnc(Oc4ccccc4)n3)CC2)cc1 [Example 11.119] |
| 7900 nM | CC(=O)N[C@@H](C)c1ccc(C2CCN(c3ncc(C(=O)Nc4ccc(C)cc4)cn3)CC2)cc1 [Example 18.17] |
| 1200 nM | CC(=O)N[C@@H](C)c1ccc(C2CCN(c3ncc(-c4cnc(Br)n4C)cn3)CC2)cc1 [Example 10.74] |
| 9100 nM | COCc1nc(N2CCC(c3ccc([C@H](C)NC(C)=O)cc3)CC2)no1 [Example 26.4] |
| 220 nM | COCCCOc1ccc(N2CCC(c3ccc([C@H](C)NC(C)=O)cc3)CC2)cc1 [Example 9.26] |
| 390 nM | CC(=O)N[C@@H](C)c1ccc(C2CCN(c3ncc(-c4ccc(F)cc4C)cn3)CC2)cc1 [Example 10.60] |
| 22400 nM | CC(=O)N[C@@H](C)c1ccc(C2CCN(c3ncc(C(=O)NCC4CCCO4)cn3)CC2)cc1 (stereo partly shown) [Example 18.57] |
